Tested on: NCI-H929 complex spheroids, viability % test/control
Test: Anticancer human tumor NCI-H929 cell line growth inhibition [RAS];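 note: compound exposure lasted seven days before viability was read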;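 for viability, T/C: 100% = DMSO vehicle control viability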
Settings: for IC50: curve of first compound; for viability, T/C: stronger effect = lower value
How it was run: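 Agents were tested in combination matrices in half-log decrements from a top concentration at or near clinical Cmax (10 microM if undetermined). Targets were multi-cell spheroids of tumour lines plus HUVEC and MSC stromal cells.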

[1] = second compound 0.000949 µM, first compound 0.0316 µM
[2] = second compound 0.000949 µM, first compound 0.1 µM
[3] = second compound 0.000949 µM, first compound 0.316 µM
[4] = second compound 0.000949 µM, first compound 1 µM
[5] = second compound 0.000949 µM, first compound 3.16 µM
[6] = second compound 0.000949 µM, first compound 10 µM
[7] = second compound 0.003 µM, first compound 0.0316 µM
[8] = second compound 0.003 µM, first compound 0.1 µM
[9] = second compound 0.003 µM, first compound 0.316 µM
[10] = second compound 0.003 µM, first compound 1 µM
[11] = second compound 0.003 µM, first compound 3.16 µM
[12] = second compound 0.003 µM, first compound 10 µM
[13] = second compound 0.00949 µM, first compound 0.0316 µM
[14] = second compound 0.00949 µM, first compound 0.1 µM
[15] = second compound 0.00949 µM, first compound 0.316 µM
[16] = second compound 0.00949 µM, first compound 1 µM
[17] = second compound 0.00949 µM, first compound 3.16 µM
[18] = second compound 0.00949 µM, first compound 10 µM
[19] = second compound 0.03 µM, first compound 0.0316 µM
[20] = second compound 0.03 µM, first compound 0.1 µM
[21] = second compound 0.03 µM, first compound 0.316 µM
[22] = second compound 0.03 µM, first compound 1 µM
[23] = second compound 0.03 µM, first compound 3.16 µM
[24] = second compound 0.03 µM, first compound 10 µM
[25] = second compound 0.0949 µM, first compound 0.0316 µM
[26] = second compound 0.0949 µM, first compound 0.1 µM
[27] = second compound 0.0949 µM, first compound 0.316 µM
[28] = second compound 0.0949 µM, first compound 1 µM
[29] = second compound 0.0949 µM, first compound 3.16 µM
[30] = second compound 0.0949 µM, first compound 10 µM
[31] = second compound 0.3 µM, first compound 0.0316 µM
[32] = second compound 0.3 µM, first compound 0.1 µM
[33] = second compound 0.3 µM, first compound 0.316 µM
[34] = second compound 0.3 µM, first compound 1 µM
[35] = second compound 0.3 µM, first compound 3.16 µM
[36] = second compound 0.3 µM, first compound 10 µM

For `CC1(O)CCCC1n1c(=O)c(C(F)F)cc2cnc(NC3CCN(S(C)(=O)=O)CC3)nc21` (stereo unspecified) + CCn1c(-c2cc(N3CCN(C)CC3)cnc2C(C)OC)c2c3cc(ccc31)-c1csc(n1)CC(NC(=O)C1CC1C)C(=O)N1CCCC(N1)C(=O)OCC(C)(C)C2, which IC50 (second compound 0.000949 µM) is on record?
The IC50 was 188 nM.

And the IC50 (second compound 0.003 µM)?
The IC50 was 191 nM.

And the IC50 (second compound 0.00949 µM)?
Its IC50 is 200 nM.

And the IC50 (second compound 0.03 µM)?
The IC50 was 57.5 nM.

And the IC50 (second compound 0.0949 µM)?
Its IC50 is under 31.6 nM.

And the IC50 (second compound 0.3 µM)?
The IC50 was under 31.6 nM.

What about the viability, T/C [1] of the same compound?
Its viability, T/C is 109%.

What about the viability, T/C [2] of the same compound?
The viability, T/C was 106%.

What about the viability, T/C [3] of the same compound?
The viability, T/C was 3.79%.

What about the viability, T/C [4] of the same compound?
Its viability, T/C is 4.11%.

And the viability, T/C [5]?
Its viability, T/C is 3.8%.

What about the viability, T/C [6] of the same compound?
The viability, T/C was 0.15%.

And the viability, T/C [7]?
The viability, T/C was 103%.

And the viability, T/C [8]?
The viability, T/C was 115%.

What about the viability, T/C [9] of the same compound?
The viability, T/C was 2.16%.

And the viability, T/C [10]?
Its viability, T/C is 7.09%.

And the viability, T/C [11]?
The viability, T/C was 7.23%.

What about the viability, T/C [12] of the same compound?
Its viability, T/C is 0.06%.

And the viability, T/C [13]?
The viability, T/C was 113%.

And the viability, T/C [14]?
Its viability, T/C is 117%.

And the viability, T/C [15]?
Its viability, T/C is 4.34%.

And the viability, T/C [16]?
Its viability, T/C is 14.1%.

And the viability, T/C [17]?
Its viability, T/C is 8.7%.

What about the viability, T/C [18] of the same compound?
Its viability, T/C is 0.05%.

And the viability, T/C [19]?
The viability, T/C was 72.2%.

And the viability, T/C [20]?
The viability, T/C was 29.5%.

And the viability, T/C [21]?
Its viability, T/C is 4.66%.

And the viability, T/C [22]?
Its viability, T/C is 9.27%.

What about the viability, T/C [23] of the same compound?
The viability, T/C was 2.06%.

What about the viability, T/C [24] of the same compound?
Its viability, T/C is 0.13%.

And the viability, T/C [25]?
The viability, T/C was 6.97%.

And the viability, T/C [26]?
The viability, T/C was 4.65%.

And the viability, T/C [27]?
Its viability, T/C is 3.2%.

And the viability, T/C [28]?
The viability, T/C was 2.92%.

And the viability, T/C [29]?
The viability, T/C was 0.85%.

And the viability, T/C [30]?
The viability, T/C was 0.09%.

And the viability, T/C [31]?
The viability, T/C was 3.5%.

What about the viability, T/C [32] of the same compound?
Its viability, T/C is 2.32%.

What about the viability, T/C [33] of the same compound?
The viability, T/C was 2.57%.

And the viability, T/C [34]?
The viability, T/C was 1.68%.

And the viability, T/C [35]?
Its viability, T/C is 0.72%.

What about the viability, T/C [36] of the same compound?
The viability, T/C was 8.23%.

What does the source list for `CCC(CC)c1cc(NC2CCC(N)C2)n2nccc2n1` (stereo unspecified) + CCn1c(-c2cc(N3CCN(C)CC3)cnc2C(C)OC)c2c3cc(ccc31)-c1csc(n1)CC(NC(=O)C1CC1C)C(=O)N1CCCC(N1)C(=O)OCC(C)(C)C2?
IC50 (second compound 0.000949 µM): 1430 nM; IC50 (second compound 0.003 µM): 1620 nM; IC50 (second compound 0.00949 µM): 738 nM; IC50 (second compound 0.03 µM): < 31.6 nM; IC50 (second compound 0.0949 µM): < 31.6 nM; IC50 (second compound 0.3 µM): < 31.6 nM; viability, T/C [1]: 104%; viability, T/C [2]: 94.4%; viability, T/C [3]: 101%; viability, T/C [4]: 72.3%; viability, T/C [5]: 0.36%; viability, T/C [6]: 0.25%; viability, T/C [7]: 96.1%; viability, T/C [8]: 93.5%; viability, T/C [9]: 102%; viability, T/C [10]: 85.8%; viability, T/C [11]: 0.43%; viability, T/C [12]: 0.14%; viability, T/C [13]: 114%; viability, T/C [14]: 117%; viability, T/C [15]: 115%; viability, T/C [16]: 26.6%; viability, T/C [17]: 0.16%; viability, T/C [18]: 0.13%; viability, T/C [19]: 36.7%; viability, T/C [20]: 34.9%; viability, T/C [21]: 49.8%; viability, T/C [22]: 2.49%; viability, T/C [23]: 0.12%; viability, T/C [24]: 0.1%; viability, T/C [25]: 6.21%; viability, T/C [26]: 6.5%; viability, T/C [27]: 6.35%; viability, T/C [28]: 0.97%; viability, T/C [29]: 0.11%; viability, T/C [30]: 0.09%; viability, T/C [31]: 4.59%; viability, T/C [32]: 3.76%; viability, T/C [33]: 2.94%; viability, T/C [34]: 1.37%; viability, T/C [35]: 0.14%; viability, T/C [36]: 0.12%

Which results are given for `CCN1CCN(Cc2ccc(Nc3ncc(F)c(-c4cc(F)c5nc(C)n(C(C)C)c5c4)n3)nc2)CC1` + CCn1c(-c2cc(N3CCN(C)CC3)cnc2C(C)OC)c2c3cc(ccc31)-c1csc(n1)CC(NC(=O)C1CC1C)C(=O)N1CCCC(N1)C(=O)OCC(C)(C)C2?
IC50 (second compound 0.000949 µM): 789 nM; IC50 (second compound 0.003 µM): 725 nM; IC50 (second compound 0.00949 µM): 642 nM; IC50 (second compound 0.03 µM): 134 nM; IC50 (second compound 0.0949 µM): < 3.16 nM; IC50 (second compound 0.3 µM): < 3.16 nM; viability, T/C (second compound 0.000949 µM, first compound 0.00316 µM): 104%; viability, T/C (second compound 0.000949 µM, first compound 0.01 µM): 98.4%; viability, T/C [1]: 110%; viability, T/C [2]: 107%; viability, T/C [3]: 114%; viability, T/C [4]: 35.1%; viability, T/C (second compound 0.003 µM, first compound 0.00316 µM): 98.3%; viability, T/C (second compound 0.003 µM, first compound 0.01 µM): 105%; viability, T/C [7]: 108%; viability, T/C [8]: 113%; viability, T/C [9]: 114%; viability, T/C [10]: 27.8%; viability, T/C (second compound 0.00949 µM, first compound 0.00316 µM): 109%; viability, T/C (second compound 0.00949 µM, first compound 0.01 µM): 116%; viability, T/C [13]: 120%; viability, T/C [14]: 125%; viability, T/C [15]: 122%; viability, T/C [16]: 7.19%; viability, T/C (second compound 0.03 µM, first compound 0.00316 µM): 81.7%; viability, T/C (second compound 0.03 µM, first compound 0.01 µM): 80.5%; viability, T/C [19]: 76.6%; viability, T/C [20]: 55.4%; viability, T/C [21]: 29.2%; viability, T/C [22]: 1.2%; viability, T/C (second compound 0.0949 µM, first compound 0.00316 µM): 9.23%; viability, T/C (second compound 0.0949 µM, first compound 0.01 µM): 8.26%; viability, T/C [25]: 6.56%; viability, T/C [26]: 4.66%; viability, T/C [27]: 2.4%; viability, T/C [28]: 0.89%; viability, T/C (second compound 0.3 µM, first compound 0.00316 µM): 4.35%; viability, T/C (second compound 0.3 µM, first compound 0.01 µM): 4.24%; viability, T/C [31]: 2.73%; viability, T/C [32]: 2.03%; viability, T/C [33]: 1.42%; viability, T/C [34]: 0.89%

Source: PubChem BioAssay AID2060884 (Molecular Pharmacology Branch, DTP, NCI, 2025)
